Experimental data from patent US20070048325A1, “Combination therapies for inhibiting integrin-extracellular matrix interactions” (priority 2005, published 2007).
Where no end group is shown, it is not given here.

Experiments:
[1] = tested on: denatured collagen type-IV; test: ^99Tc-labeled CLK-peptide binding, gamma counter; conditions: for inhibition of ^99Tc-CLK-peptide binding to denatured collagen type-IV: collagen coated at 10 μg/ml
Procedure: FIG. 28 Inhibition of Binding of ^99Tc-Labeled CLK-Peptide to Denatured Collagen Type-IV by mAb HUI77. Denatured collagen type-IV (10 μg/ml) was coated on microtiter wells and binding of ^99Tc-labeled CLK-peptide in the presence or absence of unlabeled CLK-peptide or mAb HUI77 was measured. […] These findings provide further evidence that the CLK-peptide binds to a similar, if not identical, epitope recognized by the mAb HUI77.
In addition, denatured collagen type-IV (10 μg/ml) was coated on microtiter wells and binding of ^99Tc-labeled CLK-Peptide in the presence or absence of unlabeled CLK-peptide or mAb HUI77 was measured using a gamma counter. […] These findings provide further evidence that the CLK-peptide binds to a similar if not identical epitope recognized by Mab HUI77.

[2] = target: integrin αvβ3 on M21 human melanoma cells (human (on human melanoma M21 cells)) (UniProt P06756); test: cell-based or functional assay
Sequence of UniProt P06756 (P06756 31-1048, chain 1 of 2): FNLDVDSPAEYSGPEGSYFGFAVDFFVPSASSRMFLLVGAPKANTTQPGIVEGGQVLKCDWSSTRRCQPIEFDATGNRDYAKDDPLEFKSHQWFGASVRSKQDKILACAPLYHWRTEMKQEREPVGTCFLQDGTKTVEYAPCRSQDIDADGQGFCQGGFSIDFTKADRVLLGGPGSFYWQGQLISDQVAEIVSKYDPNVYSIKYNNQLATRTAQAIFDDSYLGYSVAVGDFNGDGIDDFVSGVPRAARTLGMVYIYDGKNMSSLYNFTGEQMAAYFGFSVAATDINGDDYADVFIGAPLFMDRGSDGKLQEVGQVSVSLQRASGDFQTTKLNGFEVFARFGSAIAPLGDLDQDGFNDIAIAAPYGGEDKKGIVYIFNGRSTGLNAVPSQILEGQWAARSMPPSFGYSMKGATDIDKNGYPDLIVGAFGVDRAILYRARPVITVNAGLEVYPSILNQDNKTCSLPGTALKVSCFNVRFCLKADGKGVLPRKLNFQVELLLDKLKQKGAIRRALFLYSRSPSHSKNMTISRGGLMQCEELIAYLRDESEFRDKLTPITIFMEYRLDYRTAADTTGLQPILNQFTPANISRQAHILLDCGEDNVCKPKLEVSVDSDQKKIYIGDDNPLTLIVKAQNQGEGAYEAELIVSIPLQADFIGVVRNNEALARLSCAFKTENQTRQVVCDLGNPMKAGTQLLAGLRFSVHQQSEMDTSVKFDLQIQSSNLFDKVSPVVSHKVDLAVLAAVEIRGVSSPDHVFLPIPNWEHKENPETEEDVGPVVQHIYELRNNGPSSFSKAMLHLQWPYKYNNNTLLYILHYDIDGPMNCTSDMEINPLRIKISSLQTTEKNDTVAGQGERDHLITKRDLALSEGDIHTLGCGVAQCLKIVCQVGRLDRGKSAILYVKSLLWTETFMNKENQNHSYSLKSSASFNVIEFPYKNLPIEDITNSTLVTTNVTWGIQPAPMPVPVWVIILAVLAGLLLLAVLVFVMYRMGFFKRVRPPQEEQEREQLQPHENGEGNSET
Sequence of UniProt P06756 (P05106 27-788, chain 2 of 2, further chain): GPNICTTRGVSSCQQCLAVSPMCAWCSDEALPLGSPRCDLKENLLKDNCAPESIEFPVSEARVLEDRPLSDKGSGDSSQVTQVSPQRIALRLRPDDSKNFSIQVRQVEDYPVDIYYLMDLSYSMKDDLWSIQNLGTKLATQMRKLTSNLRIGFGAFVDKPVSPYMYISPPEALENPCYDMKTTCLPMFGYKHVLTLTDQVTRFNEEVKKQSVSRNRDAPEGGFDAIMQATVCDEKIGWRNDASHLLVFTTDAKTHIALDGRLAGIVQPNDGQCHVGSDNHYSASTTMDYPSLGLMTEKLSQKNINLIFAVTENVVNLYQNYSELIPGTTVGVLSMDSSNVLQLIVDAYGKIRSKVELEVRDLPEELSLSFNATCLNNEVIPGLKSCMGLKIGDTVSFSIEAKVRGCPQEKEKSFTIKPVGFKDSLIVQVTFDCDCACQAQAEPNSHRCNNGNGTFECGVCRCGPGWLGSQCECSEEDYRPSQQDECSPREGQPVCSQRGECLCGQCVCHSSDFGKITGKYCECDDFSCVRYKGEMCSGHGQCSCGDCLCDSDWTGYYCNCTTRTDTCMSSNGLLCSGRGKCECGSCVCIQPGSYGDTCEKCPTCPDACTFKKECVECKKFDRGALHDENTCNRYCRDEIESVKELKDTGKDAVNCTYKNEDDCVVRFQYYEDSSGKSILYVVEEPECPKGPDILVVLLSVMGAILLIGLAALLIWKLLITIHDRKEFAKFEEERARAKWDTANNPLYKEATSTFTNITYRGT

[3] = tested on: denatured collagen type-IV; test: Solid phase ELISA of HRP-labeled CLK-peptide binding; conditions: collagen coated at 10 μg/ml; ELISA 490 nm
Procedure: FIG. 27 Inhibition of Binding of Labeled CLK-Peptide to Denatured Collagen Type-IV by mAb HUI77. To examine the binding specificity of the synthetic CLK-peptide, the peptide was labeled and solid phase ELISAs were performed.
To examine the binding specificity of CLK-Peptide, the peptide was labeled and solid phase ELISAs were performed. Denatured collagen type-IV (10 μg/ml) was coated on microtiter wells and binding of either HRP-labeled CLK-Peptide or mAbs (mAbs HU177 or HUIV26) was measured by ELISA at a wavelength of 490 nm.

denatured collagen = conditions: cited from earlier work
[4] = tested on: denatured collagen type-IV; conditions: substantially greater defined as at least 1.5-fold; cited from earlier work
M21 cells = test: M21 cell adhesion to native collagen type-IV; format: cell-based, human; conditions: CLK-peptide 100 μg/ml; mAb HUIV26 100 μg/ml; data not shown
Procedure: FIG. 25 Effect of mAb HUIV26 in Combination with CLK-Peptide on Adhesion of M21 Cells to Denatured Collagen Type IV. Microtiter wells were coated with either native or denatured collagen type-IV. M21 cells were allowed to bind to the coated substrates in the presence of CLK-peptide, mAb HUIV26, or both.
The effects of CLK-peptide, mAb HUIV26, and the combination of both on tumor cell adhesion were examined in vitro. Non-tissue culture treated 48-well microtiter plates were coated overnight at 4° C. with either native or denatured collagen type-IV (5 μg/ml). The plates were then blocked with 1% BSA in PBS for 1 hour at 37° C. Human melanoma (M21) cells at 10^5 cells/well in adhesion buffer were allowed to attach to the coated wells in the presence of either CLK-peptide (100 μg/ml), or mAb HUIV26 (100 μg/ml, […]), or both together (CLK-peptide 25 μg/ml, mAb HUIV26 100 μg/ml). The cells were washed 2× with PBS, stained with crystal violet and destained with 10% acetic acid. Cell adhesion was quantified by measuring the O.D. of eluted dye at 600 nm. Data bars represent the mean O.D.±standard deviation from triplicate wells.

[5] = tested on: denatured collagen type-IV; test: Competition ELISA of CLK-peptide and mAb HUIV26; format: binding
Procedure: FIG. 26 Binding of CLK-Peptide and Mab HUIV26 to Denatured Collagen Type IV. To examine the epitope bound by CLK and HUIV26, competition ELISAs were carried out. Microtiter wells were coated with denatured collagen type-IV (10 μg/ml), and mAb HUIV26 was allowed to bind the denatured collagen in the presence or absence of CLK-peptide.
To characterize the epitope bound by CLK and HUIV26, competition ELISAs were carried out. Microtiter wells were coated with denatured collagen type-IV (1 μg/ml) overnight at 4° C., and the plates were blocked with 1% BSA for 1 hour at 37° C. Monoclonal Ab HUIV26 was added at 1 μg/ml and allowed to bind the denatured collagen in the presence or absence of 100 μg/ml of CLK-peptide for 2 hours at 37° C. Goat-anti-mouse antibody was added at 1:3000 and incubation was allowed for 1 hour at 37° C. A color solution, then a stopping solution of 4N sulfuric acid, were added and binding was quantified by measuring the O.D. 490 nm. […] Similar results were obtained over a wide range of peptide and antibody concentrations (1 to 100 μg/ml; data not shown).

^99Tc-CLK-peptide: CLK-peptide labeled with 99Tc (CLKQNGGNFSLG; also: labeled with 99Tc)
binding of ^99Tc-CLK-peptide to denatured collagen type-IV ([1]; 10 μg/ml, 50 μl/well): specifically binds

Mab LM609 (antibody)
relative level of IGFBP-4 RNA (real time PCR) in M21 cells on denatured collagen type-IV [2]: 8 fold
relative level of TSP-1 (real time PCR) in M21 cells on plates coated with anti-integrin Mabs [2]: > 50%
relative level of TSP-1 RNA (real time PCR) in M21 cells on denatured collagen type-IV [2]: 8 fold

mAb HUI77: mouse monoclonal antibody to denatured collagen; hybridoma PTA-6551; SEQ ID NO: 1 and 8
inhibition of ^99Tc-CLK-peptide binding to denatured collagen type-IV [1]: inhibited
inhibition of HRP-labeled CLK-peptide binding to denatured collagen type-IV [3]: specifically inhibited
affinity to the native form of the collagen compared to denatured collagen (denatured collagen): substantially reduced affinity

NH2-S-L-K-Q-N-G-G-N—F—S-L-C—COOH (H-SLKQNGGNFSLC-OH) [SLK-peptide]
binding affinity to denatured collagen type-IV compared to native collagen type-IV [4]: substantially greater

NH2-C-L-K-Q-N-G-G-N—F—S-L-G-COOH (H-CLKQNGGNFSLG-OH) [CLK-peptide]
effect on M21 cell adhesion to native collagen type-IV (M21 cells): neither had any effect
inhibition of ^99Tc-CLK-peptide binding to denatured collagen type-IV [1]: dose dependent inhibition
blocking of mAb HUIV26 binding to denatured collagen type-IV ([5]; HUIV26 1 μg/ml, CLK-peptide 100 μg/ml): did not block
binding affinity to denatured collagen type-IV compared to native collagen type-IV [4]: substantially greater

B1: mAb HUIV26: monoclonal antibody to denatured collagen; Hybridoma HUIV26 (PTA-6563); SEQ ID NO: 15 and 22 (antibody, listed as Mus musculus, V domains shown)
VH: EVKLLESGGGLVQPGGSLKLSCAASGFDFSRYWMSWVRQAPGKGLEWIGEINPDSSTINYTPSLKDKFIISRDNAKNTLYLQMSKVRSEDTALYYCARPVDGYYDAMDYWGQGTSVTVSS
VL: DIVMTQSPSLLSVSAGEKVTMSCKSSQSLLNSGNQKNYLAWYQQKPGQPPKLLIYGASTRESGVPDRFTGSGSGTDFTLIISSVQAEDLAVYYCQNDHSVPYTFGGGTKLEI
effect on M21 cell adhesion to native collagen type-IV (M21 cells): neither had any effect
inhibition of HRP-labeled CLK-peptide binding to denatured collagen type-IV [3]: not
affinity to the native form of the collagen compared to denatured collagen (denatured collagen): substantially reduced affinity
binding to denatured collagen type-IV ([5]; ELISA, HUIV26 1 μg/ml): readily bound
blocking of CLK-peptide binding to denatured collagen type-IV ([5]; FIG. 26B): did not block
